Source: patent US20240197729A1, “ALK-5 Inhibitors and Uses Thereof” (Sumitomo Pharma Oncology, Inc., priority 2021, published 2024)

Assays:
[1] = test system: bleomycin-induced lung fibrosis; assay: Bleomycin-induced lung fibrosis study; assay type: in vivo, mice; details: for formation of fibrosis, Masson's trichrome stained lung tissue: 25 or 50 mg/kg BID, responding animals; for Ashcroft score, group comparison to the bleomycin/vehicle group: all doses, five animals per group
Method: The most common animal model of pulmonary fibrosis is the bleomycin-induced lung fibrosis model in rodents. This model is commonly used to investigate biology and potential therapies for fibrotic diseases affecting the lung, such as idiopathic pulmonary fibrosis (IPF). Bleomycin, a cytotoxic drug, is administered to mice or rats and causes direct cell injury triggered by DNA strand breaks, which leads to an overproduction of reactive oxygen species causing inflammation, pulmonary toxicity, activation of fibroblasts and subsequent fibrosis. Fibrosis is hallmarked by aberrant activation of lung epithelial cells and accumulation of fibroblasts and myofibroblasts with excessive production of extracellular matrix such as collagen. To test the ability of Compound 01 and Compound 04 to reduce fibrosis in vivo, a bleomycin induced lung fibrosis model in mice was utilized and endpoints such as lung hydroxyproline levels, a surrogate marker of collagen and fibrosis, and histological scoring of fibrosis were performed.
For this study, male C57BL/6J mice approximately 6 to 7 weeks old (purchased from Charles River) were weighed on the day prior to study day 0 to establish a baseline. All study arms contained sixteen total animals, except the sham/vehicle group, which contained 10 animals. All animals, except the sham/vehicle group were dosed intranasally with 4 international units per kilogram bleomycin in the morning of day 1 of the study. Bleomycin was prepared in a solution of 0.9 percent sodium chloride. All drugs were prepared in 10 percent Tween 20. Starting in the evening on day 1 of the study, one dose of Compound 04 or Compound 01 was given at either twenty-five or fifty milligrams per kilogram per oral gavage. For all subsequent days of the twenty-one day study, animals were dosed twice a day per oral gavage with either twenty-five or fifty milligram per kilogram of Compound 04 or Compound 01. At day twenty-one, the lungs were harvested and either snap frozen or fixed in paraformaldehyde. The left lobe of the lungs was subjected to hydroxyproline quantification, which was used as a biomarker of fibrosis and total collagen. The remaining lung tissue was fixed in paraformaldehyde to be processed for histological examination following hematoxylin-eosin (H&E) and Masson trichrome staining. […]. Clinical observations were recorded daily.

[2] = test system: A549 lung fibroblasts; assay: Epithelial to mesenchymal transition gene expression in A549; assay type: cell-based; details: 5 ng/ml TGF-beta1, 48 h, up to 5 micromolar
Method: To evaluate whether Compounds 01 and 04 could inhibit epithelial to mesenchymal transition (EMT), an in vitro model using A549 lung fibroblasts was utilized. A549 cells were purchased from ATCC (CCL-185), and grown in RPMI media supplemented with 10 percent fetal bovine serum (FBS). On the day of the experiment, ten thousand A549 cells were seeded in eighty microliters total volume into a flat, tissue culture coated, ninety-six-well plate. Drugs, including positive control compounds vactosertib, PF-06952229 and LY3200882, were added in an eight point, one to three dilution series with the highest concentration of each drug being five micromolar, bringing the total volume of each well to ninety microliters. DMSO, which served to dissolve the 10 millimolar stock solution of each drug, was normalized across all wells After one hour of drug pretreatment, recombinant human TGF-beta1 was added to a final concentration of five nanograms per milliliter, bringing the volume to one hundred microliters. Recombinant human TGF-beta 1 was purchased from R&D Systems (7754-BH-005) and its stock solution was prepared according to manufacturer's instructions and diluted in RPMI media supplemented with 10% FBS. The ninety-six well plate with one hundred microliter volume was incubated at 37° C. at 5% CO2 for forty-eight hours. At the end of the incubation period, gene expression levels of various EMT markers were assessed using a custom designed QuantiGene Plex Gene Expression Assay. The genes chosen were CDH1 (E-cadherin), CDH2 (N-Cadherin), SNAI1 (Snail), SNAI2 (Slug), VIM (Vimentin), SPARC, GALNT6, CTNNB1 (beta-catenin), TGFB1, and MAML3.
Briefly, cell lysate was prepared using the QuantiGene Sample Processing Kit —Cultured Cells (QS0100) in the ninety-six well plate. Cell lysates were then subjected to bead hybridization, multiple probe hybridization steps and SAPE labeling following manufacturer's instruction. The plate was read on a Luminex MAGPIX instrument.

[3] = test system: athymic nude mice; details: mouse, in vivo; for therapeutic index: female, athymic nude (NCRNU), 5 days; for MTD / tolerability, acute MTD study: po
Method: . Evaluation of the acute and chronic maximum tolerated dose (MTD) for Compound 04 and Compound 01 was carried out by oral gavage administration of each compound to athymic nude mice according to the following procedure.
Five weeks-old female athymic nude mice (NCRNU) were purchased from Taconic Biosciences, Rensselaer NY, and acclimated for one week. Mice were approximately […] when enrolled in the study. All compounds were resuspended in 1-methyl-2-pyrrolidinone (Sigma, 494496) (10% v/v) plus 20% Solutol (Sigma 42966) in water (90% v/v). Mice were randomized according to the baseline weight (Day 1) at the beginning of the acute and chronic MTD studies.
For the acute MTD study, mice were administered three escalating doses of each compound every other day (two animals per group). Mice were dosed by oral gavage with one hundred milligrams per kilogram on day one, five hundred milligrams per kilogram on day three, and one thousand milligrams per kilogram on day five. Body weight was measured every day, and the percent body weight change was calculated.
For the chronic MTD study, three groups, with three mice per group were dosed daily for five consecutive days, at one hundred, three hundred, or one thousand milligrams per kilogram of Compound 04 or Compound 01, and observed for five consecutive days post-dosing during recovery. Body weight was measured, and clinical observations were recorded daily for ten consecutive days. A vehicle only treatment group of three mice was included to evaluate potential toxicity of the vehicle. The percent body weight change for each day was calculated based on Day 1 measurements.

Row | SMILES | formation of fibrosis, Masson's trichrome stained lung tissue [1] | Ashcroft score, group comparison to the bleomycin/vehicle group [1] | CDH1 (E-Cadherin) gene expression [2] | expression of the nine genes induced with EMT (CDH2, SNAI1, SNAI2, VIM, SPARC, GALNT6, CTNNB1, TGFB1, MAML3) [2] | therapeutic index [3] | MTD [3] | tolerability, acute MTD study [3]
1 | Clc1cccc2c(Nc3ccnc(Nc4cccc(N5CCOCC5)c4)c3)cnnc12 [Compound 04, N4-(8-chlorocinnolin-4-yl)-N2-[3-(morpholin-4-yl)phenyl]pyridine-2,4-diamine] | reduced the formation of fibrosis | not statistically significant | inhibition of downregulation of CDH1 (E-Cadherin) | inhibition of induction of the nine genes that are induced with EMT | 6 × | three hundred | well tolerated in mice at one thousand milligrams per kilogram with single dose administration
2 | Cc1nn(CC(F)(F)F)cc1Nc1cc(Nc2cnnc3c(C)cccc23)ccn1 [Compound 01, N2-[3-methyl-1-(2,2,2-trifluoroethyl)-1H-pyrazol-4-yl]-N4-(8-methylcinnolin-4-yl)pyridine-2,4-diamine] | reduced the formation of fibrosis | not statistically significant | inhibition of downregulation of CDH1 (E-Cadherin) | inhibition of induction of the nine genes that are induced with EMT | less than 4 × | less than three hundred | well tolerated in mice at one thousand milligrams per kilogram with single dose administration
